A word on the MIC: it is the lowest concentration found to suppress growth. The melting point is the temperature, or range, at which the solid turns liquid.

Converted amounts (≈) assume the structure as drawn.

Data set [1] concerns S. pyogenes DH-3467. Put plainly: Agar well-diffusion assay. It is filed as cell-based. The settings on record: Streptococcus pyogenes, DH3467; S. pyogenes DH-3467; 50 µL of 10 mM per well; read-out: Diameter of Inhibition Zones (AZOI). The method, then: (§1) The synthesized compounds were initially screened for their in vitro antibacterial activity against the different Gram-positive and Gram-negative bacteria, tested using the agar well-diffusion assay. The turbidity of the bacterial suspensions was established to the 0.5 McFarland turbidity standard. The activity was performed on TS agar plates. The bacteria were spread on the surface of the agar plates, and 10 mm wells were screwed into the agar plates. The assay was performed under aseptic conditions. An aliquot of 50 µL of each tested compound (10 mM) was added to the wells, and the plates were incubated overnight at 37 °C. Both Erythromycin and Amikacin antibiotic disks were used as positive control, while DMSO solvent was used as a negative control in this study. The diameters of inhibition zones were measured and recorded in mm. A comparative study of the synthesized compounds was determined. The experiment was performed in triplicates.
Background: In agar diffusion tests the substance spreads into inoculated agar from a disc or well.

Data set [2] relates to E. coli DH-5987. Put plainly: Agar well-diffusion assay. It counts as cell-based. Particulars: Escherichia coli, DH5987, 50 µL of 10 mM per well, read-out: Diameter of Inhibition Zones (AZOI). The method, then: as §1
Data set [3] deals with E. faecalis DH-5478. Nature of the data set: Agar well-diffusion assay. It counts as cell-based. Particulars: Enterococcus faecalis, DH5478; E. faecalis DH-5478; 50 µL of 10 mM per well; read-out: Diameter of Inhibition Zones (AZOI). The procedure:
as §1

In data set [4] the test system is A. baumannii DH-243. Put plainly: Agar well-diffusion assay. It counts as cell-based. Particulars: Acinetobacter baumannii, DH243; A. baumannii DH-243; 50 µL of 10 mM per well; read-out: Diameter of Inhibition Zones (AZOI). The procedure: as §1
The subject of data set [5] is S. aureus DH-432. Put plainly: Agar well-diffusion assay. It counts as cell-based. Particulars: Staphylococcus aureus, DH432; S. aureus DH-432; 50 µL of 10 mM per well; read-out: Diameter of Inhibition Zones (AZOI). The procedure:
as §1

The subject of data set [6] is S. pyogenes DH-3467. Nature of the data set: Broth microdilution MIC/MBC. The settings on record: for MIC: Streptococcus pyogenes, DH3467, 24 h, read-out: MIC (Mean ± SEM); for MBC/MIC: value in brackets. It is filed as cell-based, Streptococcus pyogenes. The procedure:
(§2) The broth microdilution method was taken as a basis to detect the MICs of pyrazole compounds against tested clinical isolates, according to the Clinical Laboratory and Standards Institute guidelines. The broth cultures were used to prepare the bacterial inoculums, and the suspensions were adjusted to the standard 0.5 McFarland turbidity. Stock solutions of the synthesized pyrazoles were prepared in pure DMSO and further serially diluted with TS broth in the concentration range from 128 µg/mL to 0.0625 µg/mL. A well containing noninoculated TS broth, free of any antimicrobial agents, was also included to ensure the medium sterility, while Erythromycin and Amikacin served as positive controls. Bacterial growth was determined by adding 20 µL of 0.5% TTC (2,3,5-triphenyltetrazolium chloride) aqueous solution. […] All experiments were repeated three times. The bactericidal effect from each concentration of the pyrazole and pyrazolo[1,5-a]pyrimidine derivatives showing growth inhibition was further studied. For this study, a loopful of 5 µL was taken from each no-visible growth tube and streaked onto plates of TS agar.

Data set [7] relates to P. aeruginosa DH-5698. Nature of the data set: Broth microdilution MIC/MBC. It counts as cell-based, Pseudomonus aeruginosa. Particulars: for MIC: Pseudomonas aeruginosa, DH5698, 24 h, read-out: MIC (Mean ± SEM); for MBC/MIC: value in brackets. The method, then:
as §2

Data set [8] concerns E. coli DH-5987. Put plainly: Broth microdilution MIC/MBC. Particulars: E. coli DH-5987; for MBC/MIC: value in brackets; for MIC: Escherichia coli, DH5987, 24 h, read-out: MIC (Mean ± SEM). It counts as cell-based, Escherichia coli. The method, then: as §2
Data set [9] deals with S. aureus DH-432. Put plainly: Broth microdilution MIC/MBC. It is filed as cell-based, Staphylococcus aureus. The settings on record: for MIC: Staphylococcus aureus, DH432, 24 h, read-out: MIC (Mean ± SEM); for MBC/MIC: value in brackets. The procedure: as §2
For data set [10], the system named is A. baumannii DH-243. Nature of the data set: Broth microdilution MIC/MBC. It counts as cell-based, Acinetobacter baumannii. The settings on record: for MIC: Acinetobacter baumannii, DH243, 24 h, read-out: MIC (Mean ± SEM); for MBC/MIC: value in brackets. The method, then: as §2
The subject of data set [11] is E. faecalis DH-5478. Nature of the data set: Broth microdilution MIC/MBC. It is filed as cell-based, Enterococcus faecalis. The settings on record: for MIC: Enterococcus faecalis, DH5478, 24 h, read-out: MIC (Mean ± SEM); for MBC/MIC: value in brackets. The method, then: as §2
For orientation: Broth dilution looks for growth in wells or tubes with falling amounts of substance.

The test system of data set [12] is P. aeruginosa DH-5698. Put plainly: Agar well-diffusion assay. It is filed as cell-based, Pseudomonus aeruginosa. Particulars: Pseudomonas aeruginosa, DH5698; P. aeruginosa DH-5698; 50 µL of 10 mM per well; read-out: Diameter of Inhibition Zones (AZOI). The procedure: as §1

`CCOC(=O)c1ccc(N=Nc2c(N)nn(C(O)=CC#N)c2N)cc1` [Compound 4, Ethyl 4-((3,5-diamino-1-(2-cyano-1-hydroxyvinyl)-1H-pyrazol-4-yl)diazenyl)benzoate] gave a melting point of 290 to 292 °C. In addition, the zone of inhibition at 10000 µM in the data set on S. pyogenes DH-3467 [1] is 23.4 mm. Also, the zone of inhibition at 10000 µM in the data set on E. coli DH-5987 [2] was determined as 22.4 mm. Also, the zone of inhibition at 10000 µM in the data set with E. faecalis DH-5478 [3] came to 22.1 mm. Besides, the zone of inhibition at 10000 µM in the data set with A. baumannii DH-243 [4] stood at 21.3 mm. For the same compound, in the data set on S. aureus DH-432 [5], the zone of inhibition at 10000 µM is 24.7 mm. Further, in the data set on S. pyogenes DH-3467 [6], the MIC came out at 1.5 ± 0.3 µg/mL (≈ 4.39 µM) and the MBC/MIC is recorded as 0.5. In the data set on P. aeruginosa DH-5698 [7], the MIC came out at 1.5 ± 0.2 µg/mL (≈ 4.39 µM) and the MBC/MIC was determined as 1. Besides, in the data set on E. coli DH-5987 [8], the MBC/MIC worked out at 1 and the minimal inhibitory concentration (MIC) turned out to be 0.75 ± 0.3 µg/mL (≈ 2.2 µM). Also, in the data set with S. aureus DH-432 [9], the MIC was determined as 1 ± 0.4 µg/mL (≈ 2.93 µM) and the MBC/MIC is given as 0.5. Further, in the data set on A. baumannii DH-243 [10], the MIC came to 2 ± 0.4 µg/mL (≈ 5.86 µM) and the MBC/MIC was determined as 0.5. In the data set on E. faecalis DH-5478 [11], the MIC is 2 ± 0.3 µg/mL (≈ 5.86 µM) and the MBC/MIC amounted to 0.5. Also, in the data set with P. aeruginosa DH-5698 [12], the zone of inhibition at 10000 µM was determined as 20.5 mm.

In the case of `CCOC(=O)c1ccc(N=Nc2c(N=Cc3ccc(OC)cc3)n[nH]c2N)cc1` [Compound 5b, Ethyl-4-((5-amino-3-((4-methoxybenzylidene)amino)-1H-pyrazol-4-yl)diazenyl)benzoate], the melting point lay in the range of 210 to 212 °C. For the same compound, the zone of inhibition at 10000 µM with S. pyogenes DH-3467 [1] was 24.1 mm. The zone of inhibition at 10000 µM with E. coli DH-5987 [2] turned out to be 25.7 mm. In addition, the zone of inhibition at 10000 µM with E. faecalis DH-5478 [3] is 25.4 mm. Moreover, the zone of inhibition at 10000 µM with A. baumannii DH-243 [4] stood at 23.4 mm. The zone of inhibition at 10000 µM with S. aureus DH-432 [5] amounted to 26.2 mm. In the data set with S. pyogenes DH-3467 [6], the MIC turned out to be 1 ± 0.2 µg/mL (≈ 2.55 µM) and the MBC/MIC worked out at 1. For the same compound, in the data set with P. aeruginosa DH-5698 [7], the MIC was determined as 2 ± 0.3 µg/mL (≈ 5.1 µM) and the MBC/MIC came to 1. Also, in the data set with E. coli DH-5987 [8], the MBC/MIC was determined as 0.5 and the MIC turned out to be 1 ± 0.2 µg/mL (≈ 2.55 µM). For the same compound, in the data set on S. aureus DH-432 [9], the minimal inhibitory concentration (MIC) amounted to 1 ± 0.3 µg/mL (≈ 2.55 µM) and the MBC/MIC worked out at 1. In the data set on A. baumannii DH-243 [10], the MIC amounted to 2 ± 0.1 µg/mL (≈ 5.1 µM) and the MBC/MIC is 0.5. Also, in the data set on E. faecalis DH-5478 [11], the MIC stood at 1.5 ± 0.3 µg/mL (≈ 3.82 µM) and the MBC/MIC is listed as 1. For the same compound, the zone of inhibition at 10000 µM with P. aeruginosa DH-5698 [12] is 24.7 mm.

In the case of `CCOC(=O)c1ccc(N=Nc2c(N)nn3c2N=C(C)CC3=O)cc1` [Compound 7, ethyl 4-((2-amino-5-methyl-7-oxo-6,7-dihydropyrazolo[1,5-a]pyrimidin-3-yl)diazenyl)benzoate], the melting point is 296 to 298 °C. Besides, in the data set with S. pyogenes DH-3467 [1], the zone of inhibition at 10000 µM was determined as 22.8 mm. Besides, the zone of inhibition at 10000 µM in the data set on E. coli DH-5987 [2] is 25.8 mm. The zone of inhibition at 10000 µM in the data set on E. faecalis DH-5478 [3] worked out at 23 mm. Moreover, the zone of inhibition at 10000 µM in the data set on A. baumannii DH-243 [4] came to 24.5 mm. Also, in the data set with S. aureus DH-432 [5], the zone of inhibition at 10000 µM is 25.3 mm. For the same compound, in the data set on S. pyogenes DH-3467 [6], the MIC worked out at 1.5 ± 0.2 µg/mL (≈ 4.41 µM) and the MBC/MIC worked out at 1. Further, in the data set with P. aeruginosa DH-5698 [7], the MIC came out at 2 ± 0.3 µg/mL (≈ 5.88 µM) and the MBC/MIC was 0.5. Also, in the data set on E. coli DH-5987 [8], the MBC/MIC turned out to be 0.5 and the MIC is 1.5 ± 0.2 µg/mL (≈ 4.41 µM). In the data set with S. aureus DH-432 [9], the MIC came to 1 ± 0.3 µg/mL (≈ 2.94 µM) and the MBC/MIC is given as 1. Also, in the data set on A. baumannii DH-243 [10], the MIC turned out to be 2 ± 0.3 µg/mL (≈ 5.88 µM) and the MBC/MIC was determined as 1. In the data set on E. faecalis DH-5478 [11], the MIC turned out to be 2 ± 0.4 µg/mL (≈ 5.88 µM) and the MBC/MIC was determined as 1. Further, the zone of inhibition at 10000 µM in the data set with P. aeruginosa DH-5698 [12] worked out at 24 mm.

`CCOC(=O)c1ccc(N=Nc2c(N)nn3c(-c4ccc(Cl)cc4)cc(-c4ccccc4)nc23)cc1` [Compound 8c, Ethyl-4-((2-amino-7-(4-chlorophenyl)-5-phenylpyrazolo[1,5-a]pyrimidin-3-yl)diazenyl)benzoate]: the zone of inhibition at 10000 µM with S. pyogenes DH-3467 [1] is 15.4 mm; in the data set with E. coli DH-5987 [2], 17.8 mm; in the data set with E. faecalis DH-5478 [3], 15.1 mm; with A. baumannii DH-243 [4] it was 15.2 mm; in the data set on S. aureus DH-432 [5] it was 16.1 mm; with P. aeruginosa DH-5698 [12] it was 16.3 mm. The MIC in the data set on S. pyogenes DH-3467 [6] was 4 ± 0.2 µg/mL (≈ 8.05 µM); in the data set with P. aeruginosa DH-5698 [7], 8 ± 0.3 µg/mL (≈ 16.1 µM); in the data set with E. coli DH-5987 [8] it was 4 ± 0.1 µg/mL (≈ 8.05 µM); with S. aureus DH-432 [9], 4 ± 0.1 µg/mL (≈ 8.05 µM); in the data set on A. baumannii DH-243 [10], 8 ± 0.4 µg/mL (≈ 16.1 µM); in the data set on E. faecalis DH-5478 [11], 8 ± 0.2 µg/mL (≈ 16.1 µM). Further, the MBC/MIC is 2 against S. pyogenes DH-3467 [6]; 2 against P. aeruginosa DH-5698 [7]; 2 against E. coli DH-5987 [8]; 1 with S. aureus DH-432 [9]; 2 in the data set with A. baumannii DH-243 [10]; 2 in the data set on E. faecalis DH-5478 [11].

Source of the values: paper PMC9854762, “Antibiofilm and Anti-Quorum-Sensing Activities of Novel Pyrazole and Pyrazolo[1,5-a]pyrimidine Derivatives as Carbonic Anhydrase I and II Inhibitors: Design, Synthesis, Radiosterilization, and Molecular Docking Studies” (Antibiotics, 2023).
